Experimental data taken from patent US20230183226A1, “AKT3 MODULATORS” (Georgiamune LLC, priority 2020, published 2023).

Target: Akt3 (Homo sapiens, UniProt Q9Y243)
Experiment: Akt3 inhibition and activation activity (Foxp3 induction assay / Jurkat-FoxP3 luciferase reporter assay)
Format: cell-based
Details: Table 2
Method: Sorted or enriched (Miltenyi magnetic separation) CD4 conventional T cells (Tconvs−CD4+/CD25) from C57/Bl6 mice were used for the induction of iTregs. A 10 µg/mL plate-bound anti-CD3 antibody (50 ul per well for 96-well plate), […] of soluble anti-CD28 antibody, 100 IU/mL of IL2 and 5 ng/mL of TGF-β in absence or presence of different concentrations of drug (usually titrating from 0.01 uM to 10 uM) were used. As negative control for induction, samples without TGF-β were used.
After 3 days of culture in presence of stimulation, TGF-β and drug, cells were stained with fixable live/dead cell stain (Life Technologies, NY) for gating and exclusion of toxic doses. The mouse Foxp3 buffer kit was used to fix and permeabilize cells according to the manufacturer's instructions (BD Bioscience, San Jose, Calif.). The anti-CD4 antibody and anti-Foxp3 antibody were used to stain the cells. After staining, cells were acquired using flow cytometer.
Cells Culture Process: Prepare a 50 ml conical tube and a T-25 culture flask with 5 ml of pre-warmed Thaw Medium 2 (no G418). Quickly thaw cells in a 37° C. water bath with constant and slow agitation. Immediately transfer the entire contents to the conical tube with Thaw Medium 2 (no G418) and centrifuge the cells at 200×g for 3 minutes.

Akt3, sequence (Q9Y243 2-479): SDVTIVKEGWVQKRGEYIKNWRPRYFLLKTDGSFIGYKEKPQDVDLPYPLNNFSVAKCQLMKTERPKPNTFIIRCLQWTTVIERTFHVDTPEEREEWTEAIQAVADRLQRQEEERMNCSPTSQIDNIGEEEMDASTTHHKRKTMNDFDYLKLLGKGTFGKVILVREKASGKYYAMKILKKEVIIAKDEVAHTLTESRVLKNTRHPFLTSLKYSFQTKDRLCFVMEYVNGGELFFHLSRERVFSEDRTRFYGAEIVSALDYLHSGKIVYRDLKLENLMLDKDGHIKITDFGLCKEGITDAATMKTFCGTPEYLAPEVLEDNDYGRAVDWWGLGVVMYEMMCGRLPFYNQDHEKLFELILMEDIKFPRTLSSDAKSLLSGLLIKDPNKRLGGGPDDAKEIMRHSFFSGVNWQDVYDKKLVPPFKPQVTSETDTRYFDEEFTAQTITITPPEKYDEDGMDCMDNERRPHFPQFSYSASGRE

Substance: 6-(2,6-dimethylmorpholino)-2-methyl-N-(4-(5-(2-methylpyridin-4-ylamino)-1H-benzo[d]imidazol-2-yl)phenyl)quinolin-4-amine [Compound 128]
- EC50: < 0.05 µM
